Source: ChEMBL document CHEMBL3132781, “Biologically active binaphthol-scaffolded imidazolium salts” (Medchemcomm, 2014)
Activity calls are given as the source filed them. The rule behind the calls is not given here.

Legend:
[1] = tested on: Escherichia coli; assay: Antibacterial activity against Escherichia coli SK037 with Tn10 insertion inactivated TolC measured at 5 to 10 fold lower MIC within 2 hrs by broth dilution assay; format: functional, organism-based
[2] = Hemolysis in human erythrocytes at 3 to 4 uM after 24 hrs; format: ADME, cell-based, Erythrocyte; details: read-out: Activity
[3] = Hemolysis in human erythrocytes upto 100 uM after 1 hr; format: ADME, cell-based, Erythrocyte; details: read-out: Activity
[4] = Induction of chloride efflux in egg yolk phosphatidylcholine large unilamellar vesicles assessed as increase of lucigenin's fluorescence at 6.25 %mol relative to EYPC; format: physicochemical
[5] = Induction of chloride efflux in egg yolk phosphatidylcholine large unilamellar vesicles assessed as increase of lucigenin's fluorescence relative to EYPC; format: physicochemical
[6] = tested on: Escherichia coli; assay: Antibacterial activity against Escherichia coli DH5[alpha] at 10 uM measured upto 24 hrs by broth dilution assay; format: functional, organism-based
[7] = tested on: Escherichia coli; assay: Antibacterial activity against Escherichia coli DH5[alpha] at 50 uM measured upto 24 hrs by broth dilution assay; format: functional, organism-based
[8] = tested on: Escherichia coli; assay: Antibacterial activity against Escherichia coli SK037 with Tn10 insertion inactivated TolC at 10 uM measured upto 24 hrs by broth dilution assay; format: functional, organism-based
[9] = tested on: Escherichia coli; assay: Antibacterial activity against Escherichia coli SK037 with Tn10 insertion inactivated TolC at 50 uM measured upto 24 hrs by broth dilution assay; format: functional, organism-based
[10] = tested on: HEK-293T; assay: Cytotoxicity against human HEK293T cells after 24 hrs by MTT assay; format: cell-based
[11] = tested on: Listeria seeligeri; assay: Antibacterial activity against Listeria seeligeri ATCC 35967 assessed as complete inhibition of bacterial growth measured upto 24 hrs by broth dilution assay; format: functional; details: ATCC 35967, 24 h
[12] = tested on: Bacillus thuringiensis; assay: Antibacterial activity against Bacillus thuringiensis HD73 assessed as complete inhibition of bacterial growth measured upto 24 hrs by broth dilution assay; format: functional; details: HD73, 24 h
[13] = tested on: Alcaligenes faecalis; assay: Antibacterial activity against Alcaligenes faecalis ATCC 8750 assessed as complete inhibition of bacterial growth measured upto 24 hrs by broth dilution assay; format: functional; details: ATCC 8750, 24 h
[14] = tested on: Escherichia coli; assay: Antibacterial activity against Escherichia coli DH5[alpha] assessed as complete inhibition of bacterial growth measured upto 24 hrs by broth dilution assay; format: functional

Structure (SMILES): CCCCCCCC[n+]1ccn(Cc2cc3ccccc3c(-c3c(O)c(Cn4cc[n+](CCCCCCCC)c4)cc4ccccc34)c2O)c1.O=S(=O)([N-]S(=O)(=O)C(F)(F)F)C(F)(F)F.O=S(=O)([N-]S(=O)(=O)C(F)(F)F)C(F)(F)F
- Activity [1]: Active
- hemolysis at 24 h, up to 4 µM [2]: < 15%
- hemolysis at 1 h [3]: < 10%
- Activity [4]: 68%
- EC50 [5]: 4.62 %molar
- Activity [6]: inactive
- Activity [7]: inactive
- Activity [8]: Active
- Activity [9]: Active
- IC50 [10]: 11.7 µM
- MIC [11]: 3 µM
- MIC [12]: 4 µM
- MIC [13]: > 100 µM
- MIC [14]: > 100 µM

Structure (SMILES): C[n+]1ccn(Cc2cc3ccccc3c(-c3c(O)c(Cn4cc[n+](C)c4)cc4ccccc34)c2O)c1.O=S(=O)([N-]S(=O)(=O)C(F)(F)F)C(F)(F)F.O=S(=O)([N-]S(=O)(=O)C(F)(F)F)C(F)(F)F
- EC50 [5]: Not Active
- MIC [11]: > 100 µM
- MIC [12]: > 100 µM
- MIC [13]: > 100 µM
- MIC [14]: > 100 µM

Structure (SMILES): CCCCCCCCCCCC[n+]1ccn(Cc2cc3ccccc3c(-c3c(O)c(Cn4cc[n+](CCCCCCCCCCCC)c4)cc4ccccc34)c2O)c1.O=S(=O)([N-]S(=O)(=O)C(F)(F)F)C(F)(F)F.O=S(=O)([N-]S(=O)(=O)C(F)(F)F)C(F)(F)F
- hemolysis at 1 h [3]: < 10%
- EC50 [5]: 9.3 %molar
- IC50 [10]: 9.2 µM
- MIC [11]: 25 µM
- MIC [12]: 100 µM
- MIC [13]: > 100 µM
- MIC [14]: > 100 µM

Structure (SMILES): CCCC[n+]1ccn(Cc2cc3ccccc3c(-c3c(O)c(Cn4cc[n+](CCCC)c4)cc4ccccc34)c2O)c1.O=S(=O)([N-]S(=O)(=O)C(F)(F)F)C(F)(F)F.O=S(=O)([N-]S(=O)(=O)C(F)(F)F)C(F)(F)F
- hemolysis at 1 h [3]: < 10%
- EC50 [5]: Not Active
- Activity [6]: inactive
- Activity [7]: inactive
- IC50 [10]: 23.8 µM
- MIC [11]: 30 µM
- MIC [12]: > 100 µM
- MIC [13]: > 100 µM
- MIC [14]: > 100 µM

Structure (SMILES): CCCCCCCCCCCCCCCC[n+]1ccn(Cc2cc3ccccc3c(-c3c(O)c(Cn4cc[n+](CCCCCCCCCCCCCCCC)c4)cc4ccccc34)c2O)c1.O=S(=O)([N-]S(=O)(=O)C(F)(F)F)C(F)(F)F.O=S(=O)([N-]S(=O)(=O)C(F)(F)F)C(F)(F)F
- EC50 [5]: 18.1 %molar
- MIC [11]: > 100 µM
- MIC [12]: > 100 µM
- MIC [13]: > 100 µM
- MIC [14]: > 100 µM
